Experimental findings from PubChem BioAssay AID248 (DTP/NCI, 2004) are described below.

Values joined by “and” are separate entries in the source; they are usually repeats but may differ in a detail not shown here. Identical values can stand only once. Toxic doses and inconclusive results are not listed.

The assay concerns L1210 leukemia ip in BDF1 mice, survival T/C. The assay is described as follows: NCI In Vivo Anticancer Drug Screen. Data for tumor model L1210 Leukemia (intraperitoneal) in B6D2F1 (BDF1) mice. Particulars: endpoint: mean survival time, higher = longer survival. Put shortly:
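Antitumor effect is assessed in tumor-bearing animals. Survival in the compound arm is compared with a vehicle-dosed control arm and expressed as their quotient.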

The mark [1] stands for this setting: dose: 100.0 mg/kg/injection, schedule: Q01DX009 (ip), vehicle: saline with Tween-80.
Where [2] appears, read: dose: 200.0 mg/kg/injection, schedule: Q01DX009 (ip), vehicle: saline with Tween-80.
[3] abbreviates: dose: 100.0 mg/kg/injection, schedule: Q04DX003 (ip), vehicle: Klucel (hydroxypropylcellulose) (HPC).
Setting [4] is: dose: 200.0 mg/kg/injection, schedule: Q04DX003 (ip), vehicle: Klucel (hydroxypropylcellulose) (HPC).
Where [5] appears, read: dose: 400.0 mg/kg/injection, schedule: Q04DX003 (ip), vehicle: Klucel (hydroxypropylcellulose) (HPC).
Where [6] appears, read: dose: 100.0 mg/kg/injection, schedule: Q04DX003 (ip), vehicle: saline with Tween-80.
The mark [7] stands for this setting: dose: 200.0 mg/kg/injection, schedule: Q04DX003 (ip), vehicle: saline with Tween-80.
Where [8] appears, read: dose: 400.0 mg/kg/injection, schedule: Q04DX003 (ip), vehicle: saline with Tween-80.
[9] abbreviates: dose: 50.0 mg/kg/injection, schedule: Q01DX009 (ip), vehicle: saline with Tween-80.

Turning to `CCOC(=O)/C=C/SCCCC(=O)O`, the T/C is, setting by setting: under setting [1], 96 % of control; under setting [2], 88 % of control.

Take `COc1cc(/C=N/N2CCN(/N=C/c3cc(OC)c(OC)c(OC)c3)CC2)cc(OC)c1OC`: the T/C was 103 % of control under setting [3], 101 % of control under setting [4] and 103 % of control under setting [5].

With `O=P(N1CCCCC1)(N1CC1)N1CC1`, the T/C is, setting by setting: (dose: 0.5 mg/kg/injection, schedule: Q01DX Z (ip), vehicle: saline) 117 % of control; (dose: 2.0 mg/kg/injection, schedule: Q01DX Z (ip), vehicle: saline) 158 % of control; (dose: 3.8 mg/kg/injection, schedule: Q01DX015 (ip), vehicle: saline) 106 % of control; (dose: 4.0 mg/kg/injection, schedule: Q01DX011 (ip), vehicle: saline) 113 % of control; (dose: 5.0 mg/kg/injection, schedule: Q01DX001 (ip), vehicle: saline) 107 % of control; (dose: 6.0 mg/kg/injection, schedule: Q01DX Z (ip), vehicle: saline) 202 % of control. Further, the T/C was 124 % of control (dose: 7.5 mg/kg/injection, schedule: Q01DX015 (ip), vehicle: saline); 150 % of control (dose: 8.0 mg/kg/injection, schedule: Q01DX011 (ip), vehicle: saline); 94 % of control (dose: 9.0 mg/kg/injection, schedule: Q01DX Z (ip), vehicle: saline); 100 % of control (dose: 10.0 mg/kg/injection, schedule: Q01DX001 (ip), vehicle: saline); 94 % of control (dose: 13.5 mg/kg/injection, schedule: Q01DX Z (ip), vehicle: saline); 95 % of control (dose: 15.0 mg/kg/injection, schedule: Q01DX011 (ip), vehicle: saline). The T/C by setting is: (dose: 20.0 mg/kg/injection, schedule: Q01DX001 (ip), vehicle: saline) 122 % of control; (dose: 21.0 mg/kg/injection, schedule: Q01DX Z (ip), vehicle: saline) 114 % of control; (dose: 30.0 mg/kg/injection, schedule: Q01DX015 (ip), vehicle: saline) 106 % of control; (dose: 40.0 mg/kg/injection, schedule: Q01DX001 (ip), vehicle: saline) 169 % of control.

As to `Cc1cccc2c3c([nH]c12)CCSC3`, the T/C was 108 % of control under setting [6], 105 % of control under setting [7] and 111 % of control under setting [8].

With `C=C(C)Cn1cnc2c1c(=O)n(C)c(=O)n2C`, the T/C is 103 % of control (dose: 100.0 mg/kg/injection, schedule: Q04DX003 (ip), vehicle: saline); 98 % of control (dose: 200.0 mg/kg/injection, schedule: Q04DX003 (ip), vehicle: saline); 89 % of control (dose: 400.0 mg/kg/injection, schedule: Q04DX003 (ip), vehicle: saline).

Regarding `S=C(NCc1ccccc1)Nc1ccccc1`, the T/C is, setting by setting: under setting [6], 96 % of control; under setting [7], 94 % of control.

On to `CN1CCCN(C)CC1`, for which the T/C is, setting by setting: (dose: 25.0 mg/kg/injection, schedule: Q01DX009 (ip), vehicle: saline with Tween-80) 104 % of control; under setting [9], 97 % of control; under setting [1], 103 % of control; under setting [6], 95 % of control; under setting [2], 91 % of control; under setting [7], 100 % of control. Moreover, the T/C under setting [8] is 102 % of control.

As for `CC1CCCCN1P(=[Se])(c1ccccc1)N1CCCCC1C` (centres undefined), the T/C (dose: 25.0 mg/kg/injection, schedule: Q04DX003 (ip), vehicle: Klucel (hydroxypropylcellulose) (HPC)) is 97 % of control; the T/C (dose: 50.0 mg/kg/injection, schedule: Q04DX003 (ip), vehicle: Klucel (hydroxypropylcellulose) (HPC)) was 103 % of control; the T/C under setting [3] was 100 % of control and 90 % of control.

Consider `O=C(N/N=C\c1ccc([N+](=O)[O-])cc1)c1ccncc1`, for which the T/C is, setting by setting: under setting [1], 94 % of control; under setting [2], 94 % of control; (dose: 400.0 mg/kg/injection, schedule: Q01DX009 (ip), vehicle: saline with Tween-80) 98 % of control.

For `CN(C)/C=N/NC(=O)C(O)(c1ccccc1)c1ccccc1`, the T/C is 105 % of control (dose: 75.0 mg/kg/injection, schedule: Q01DX009 (ip), vehicle: Klucel (hydroxypropylcellulose) (HPC)); 100 % of control (dose: 150.0 mg/kg/injection, schedule: Q01DX009 (ip), vehicle: Klucel (hydroxypropylcellulose) (HPC)); 95 % of control (dose: 300.0 mg/kg/injection, schedule: Q01DX009 (ip), vehicle: Klucel (hydroxypropylcellulose) (HPC)).

In the case of `CNC(=N)c1ccc(NC(=N)c2ccc(NC(=N)c3ccc(NC(=O)Nc4ccc(C(=N)Nc5ccc(C(=N)Nc6ccc(C(=N)NC)cc6)cc5)cc4)cc3)cc2)cc1`, the T/C reads like this: (dose: 6.25 mg/kg/injection, schedule: Q01DX001 (ip), vehicle: water) 112 % of control; (dose: 12.5 mg/kg/injection, schedule: Q01DX001 (ip), vehicle: water) 108 % of control; (dose: 16.0 mg/kg/injection, schedule: Q01DX015 (ip), vehicle: water) 157 % of control; (dose: 25.0 mg/kg/injection, schedule: Q01DX001 (ip), vehicle: water) 112 % of control; (dose: 31.0 mg/kg/injection, schedule: Q01DX015 (ip), vehicle: water) 214 % of control.

In the case of `O=S(=O)(O)c1ccc(-c2ccc(S(=O)(=O)O)cc2)cc1`, the T/C (dose: 88.8 mg/kg/injection, schedule: Q01DX Z (ip), vehicle: methylcellulose (MC)) is 98 % of control; the T/C (dose: 133.0 mg/kg/injection, schedule: Q01DX Z (ip), vehicle: methylcellulose (MC)) is 90 % of control; the T/C (dose: 200.0 mg/kg/injection, schedule: Q01DX Z (ip), vehicle: methylcellulose (MC)) was 86 % of control.

Take `O=[N+]([O-])c1cccc(/C(Cl)=C/CCl)c1`: the T/C by setting is: (dose: 50.0 mg/kg/injection, schedule: Q01DX001 (ip), vehicle: Klucel (hydroxypropylcellulose) (HPC)) 98 % of control; (dose: 100.0 mg/kg/injection, schedule: Q01DX001 (ip), vehicle: Klucel (hydroxypropylcellulose) (HPC)) 101 % of control; (dose: 200.0 mg/kg/injection, schedule: Q01DX001 (ip), vehicle: Klucel (hydroxypropylcellulose) (HPC)) 97 % of control.

For `C=CCc1ccc(OC(=O)Nc2ccccc2Cl)c(OC)c1`, the T/C (dose: 100.0 mg/kg/injection, schedule: Q04DX002 (ip), vehicle: Klucel (hydroxypropylcellulose) (HPC)) was 96 % of control; the T/C (dose: 200.0 mg/kg/injection, schedule: Q04DX002 (ip), vehicle: Klucel (hydroxypropylcellulose) (HPC)) was 96 % of control; the T/C (dose: 400.0 mg/kg/injection, schedule: Q04DX002 (ip), vehicle: Klucel (hydroxypropylcellulose) (HPC)) is 92 % of control.

`Cc1c(N)nc(Br)c2ccccc12`: the T/C reads like this: under setting [6], 105 % of control; under setting [7], 101 % of control; under setting [8], 110 % of control.

As for `COc1ccc(NC(=O)Nc2nccs2)c(OC)c1`, the T/C (dose: 100.0 mg/kg/injection, schedule: Q01DX009 (ip), vehicle: saline) is 104 % of control; the T/C (dose: 200.0 mg/kg/injection, schedule: Q01DX009 (ip), vehicle: saline) is 102 % of control; the T/C (dose: 400.0 mg/kg/injection, schedule: Q01DX009 (ip), vehicle: saline) is 105 % of control.

Take `O=C1CCSC1`: the T/C was 87 % of control under setting [9], 98 % of control under setting [1] and 98 % of control under setting [2].

On to `O=C(COc1ccc(Cl)cc1)N(c1ccccc1)C1CCCCC1`, for which the T/C is 96 % of control (dose: 100.0 mg/kg/injection, schedule: Q01DX009 (ip), vehicle: Klucel (hydroxypropylcellulose) (HPC)); 96 % of control (dose: 200.0 mg/kg/injection, schedule: Q01DX009 (ip), vehicle: Klucel (hydroxypropylcellulose) (HPC)); 94 % of control (dose: 400.0 mg/kg/injection, schedule: Q01DX009 (ip), vehicle: Klucel (hydroxypropylcellulose) (HPC)).

With `O=C(Nc1ccccc1C(F)(F)F)OCCOc1ccccc1Cl`, the T/C under setting [3] was 92 % of control, the T/C under setting [4] is 92 % of control and the T/C under setting [5] is 92 % of control.
